Measurements reported in patent US7538234B2, “Preparation of Optically active 2-(1-hydroxyethyl)-5-hydroxynaphtho[2,3-b]furan-4, 9-diones having anticancer activities” (Taheebo Japan Co., Ltd., priority 2007, dated 2009).

Legend:
Raji cell = experiment: Survival of Raji cells in the EBV-EA activation test; type: cell-based, human; settings: 2 days
Experimental: (§1) Additionally, cancer-preventing effects about Epstein-Barr virus early antigen (EBV-EA) using Raji cell, which was available from George Klein, Karolinska Institute, Sweden, were studied (cf. Table 2). • (1) To a reaction culture (1 ml) in a 15 ml plastic tube were added 1×10^6 of lymphoma Raji cells of human origin, and the mixture was incubated for 2 days at 37° C. under 5% CO2 gas. The reaction culture was a solution wherein butyric acid was added to RPMI-1640 (Roswell Park Memorial Institute) medium containing 8% FBS in a concentration of 4 mM. In case of positive controls, to the reaction culture was added 12-O-tetradecanoylphorbol-13-acetate (TPA) (20 ng, 32 pmol). • (2) Analysis was carried out by adding test compounds to the reaction culture in the above (1) with TPA in 1000, 500, 100 and 10 times higher concentration by mole (32, 16, 3.2 and 0.32 nmol) to TPA and incubating in a similar manner to the above. • (3) 2 days after incubation, a reaction tube was centrifuged at 1000 rpm for 10 minutes, and supernatants were discarded to collect reaction cells at the bottom of the tube, and thereto was added a phosphate buffered saline (0.1 ml) and the mixture was mixed well. To a glass slide for pathological pieces was added the mixture (5 μl), and then the mixture was air-dried to dryness. • (4) An antigen-antibody reaction was carried out at 37° C. in wet process by adding a diluted serum (1 μl) of patient with epipharynx carcinoma to the dried mixture. 45 minutes after the reaction, the resultant was washed with neutral phosphate buffer three times and then air-dried in a similar manner to the above. Then, thereto was added human blood gamma globulin antibody (1 μl), wherein a fluorescent substance was bound, to carry out an antigen-antibody reaction. 45 minutes after the reaction, the mixture was washed with neutral phosphate buffer to give a test sample. • (5) The test sample on a glass slide was observed under fluorescent light microscope. Both of dead and live cells were calculated, and the survival ratio in percentage is shown as a cancer-preventing activity, and the data of each sample were compared (cf. Table 2).

[1] = tested on: human breast cancer cell MCF-7; experiment: Cytotoxicity experiment (trypan blue dead cell count, 3 days incubation); type: cell-based; settings: for EC50: concentration of 50% of dead cells, 3 days incubation
Experimental: (§2) Cytotoxicity experiments were carried out by using human prostate cancer cell PC-3 (Invest. Urology 17: 16, (1979)), human lung cancer cell A-549 (J. Nat. Cancer Inst. 51: 1417, (1973)) and human breast cancer cell MCF-7 (cr. Table 1). Cells used in the experiments were obtained from Laboratory Products Dept. of Dainippon Pharmaceuticals Inc. (now Dainippon Sumitomo Pharma Co., Ltd.). • (1) In 3 cm plastic petri dish, 5×10^6 of the above human origin cancer cell was incubated at 37° C. under 5% CO2 gas on an incubation medium wherein 10% fetal bovine serum (FBS) was added to a basal medium Dulbecco's modified eagle medium (DMEM). • (2) It was confirmed 1 day after the incubation that the cells were adhered to the petri dish. All incubation media were discarded, and to the cells were added fresh media (1 ml) to give reaction media. Thereto was added a solution of a test compound in DMSO (2 μl), and the mixture was incubated for 3 days under the same conditions as in the above (1). • (3) 3 days after the incubation, all cells were collected with a scrapper, and the mixture was softly stirred. Then, an aliquot (0.1 ml) was taken into a tube, and thereto was added 0.25% trypan blue solution (0.1 ml), and the mixture was stirred and then allowed to stand for 10 minutes. Both of dead and live cells suspended in the mixture were observed using a white cell counter under light microscope to calculate cytotoxicity effects to the cancer cells. • (4) The number of the observed dead cells was calculated on the basis of the total number of cells observed as 100% using a white cell counter. Each bioactivity evaluation of each compound was represented by EC50 value (μM), which refers to a concentration of 50% of dead cells (cf. Table 1).

[2] = tested on: human prostate cancer cell PC-3; experiment: as above; type: cell-based; settings: for EC50: concentration of 50% of dead cells, 3 days incubation
Experimental: as §2

[3] = tested on: human lung cancer cell A-549; experiment: as above; type: cell-based; settings: for EC50: concentration of 50% of dead cells, 3 days incubation
Experimental: as §2

[4] = tested on: Epstein-Barr virus early antigen (EBV-EA); experiment: Inhibitory effect of TPA-induced EBV-EA activation in Raji cells; type: cell-based, human; settings: for EBV-EA-positive cell: Raji cells, 2 days
Experimental: as §1

[5] = compound concentration 500 (molar ratio/32 pmol TPA)
[6] = compound concentration 1000 (molar ratio/32 pmol TPA)
[7] = compound concentration 10 (molar ratio/32 pmol TPA)
[8] = compound concentration 100 (molar ratio/32 pmol TPA)

Structure (SMILES)	% survival (value in parentheses) (Raji cell; [5])	% survival (value in parentheses) (Raji cell; [6]) [%]	EC50 ([1]; Homo sapiens, MCF7, 72 h) [nM]	cytotoxicity compared with mitomycin ([1]; MCF-7, statement in words)	EC50 ([2]; Homo sapiens, 72 h) [nM]	cytotoxicity compared with mitomycin ([2]; PC-3, statement in words)	cytotoxicity compared with mitomycin ([3]; A-549, statement in words)	EC50 ([3]; Homo sapiens, A549, 72 h) [nM]	EBV-EA-positive cell [4, 7] [%]	EBV-EA-positive cell [4, 8] [%]	EBV-EA-positive cell [4, 5] [%]	EBV-EA-positive cell [4, 6] [%]	inhibition of EBV-EA expression ([4]; statement in words)	EC50 [1] [nM]	EC50 [2] [nM]	EC50 [3] [nM]
C[C@H](O)c1cc2c(o1)C(=O)c1cccc(O)c1C2=O [(S)-NQ801, (S)-2-(1-hydroxyethyl)-5-hydroxynaphtho[2,3-b]-furan-4,9-dione]	(60) %	60	3500	same cytotoxicity as mitomycin	140	same cytotoxicity as mitomycin	same cytotoxicity as mitomycin	960	50	16.9	4.4	0	inhibits EBV-EA expression			
CC(O)c1cc2c(o1)C(=O)c1cccc(O)c1C2=O (racemic) [Racemate NQ801, 2-(1-hydroxyethyl)-5-hydroxynaphtho[2,3-b]furan-4,9-dione]	(70) %	60	8500		560			3240	52.9	20.7	6.2	0				
CC1(C)CCC2=C(O1)c1ccccc1C(=O)C2=O [β-Lapachone, 3,4-dihydro-2,2-dimethyl-2H-naphtho(1,2-b)pyrane-5,6-dione]		50							73.1	50.4	21.7	4.7				
CO[C@@]12[C@H](COC(N)=O)C3=C(C(=O)C(C)=C(N)C3=O)N1C[C@@H]1N[C@@H]12 [Mitomycin]			960		140			430								
C[C@@H](O)c1cc2c(o1)C(=O)c1cccc(O)c1C2=O [(R)-NQ801]		70							59.4	24.7	9.7	0		9300	930	3000
